According to patent publication US20240287065A1, “COMPOUND AS CDK KINASE INHIBITOR AND USE THEREOF” (TYK MEDICINES (ZHENGZHOU) , INC., priority 2021, published 2024):

Key:
OVCAR-3 cells = test: OVCAR-3 xenograft tumor model; format: in vivo; settings: 30 mg/kg, oral tube feeding twice daily for 21 days, BALB/c nude female mice
Method: OVCAR-3 cells were cultured in RPMI1640 culture medium containing 20% fetal bovine serum and 10 μg/mL Insalin. Cells in the exponential growth phase were collected, and the cells were resuspended in the mixed solution of PBS and Matrigel in a ratio of 1:1 to a suitable concentration for subcutaneous tumor inoculation in nude mice.
To establish a xenograft tumor model, 1×10^7 OVCAR-3 cells were suspended in 0.2 mL of a mixture of PBS and Matrigel (1:1) and injected subcutaneously into 6-8-week-old BALB/c nube female mice on the right back. Tumor growth was observed periodically, and the volume (volume=½[…](length×width 2)) was measured with a vernier caliper. When the tumors grew to an average volume of 100˜150 mm^3, the drug was administered to mice (27 days after inoculation) in random groups according to the tumor size and their body weights. […] Tumor volume and animal weight were measured twice a week and continued until the end of the experiment. Dosing day was defined as day 0. Measurement time points were day 0, day 3, day 7, day 10, day 14, day 17 and day 21. All mice were euthanized by cervical dislocation. At the end of the experiment, tumors were collected and weighed to calculate TGI values (see Table 5).

HCC1806 cells = test: Cell proliferation inhibition assay (MTT, 7 days); format: cell-based; settings: Homo sapiens, HCC1806, 168 h, HCC1086 [sic], 7 days incubation
In short: (§1)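 Cells were seeded per well at 3000 (MCF7, T47D), 2500 (OVCAR3) or 2000 (HCC1806) and attached overnight. Nine 3-fold compound dilutions (10000-1.52 nM before addition to cells, 0.1% DMSO medium) were applied for 7 days, refreshed on day 4, in 4 replicates. MTT (3 h) was read at 570 nm, normalised to DMSO and blank, and IC50 fitted by three-parameter curve.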

T47D cells = test: Cell proliferation inhibition assay (MTT, 7 days); format: cell-based; settings: Homo sapiens, 168 h, 7 days incubation
In short: as §1

OVCAR3 cells = test: Cell proliferation inhibition assay (MTT, 7 days); format: cell-based; settings: Homo sapiens, OVCAR-3, 168 h, 7 days incubation
In short: as §1

MCF7 cells = test: Cell proliferation inhibition assay (MTT, 7 days); format: cell-based; settings: Homo sapiens, 168 h, 7 days incubation
In short: as §1

xMCF-7/Palbo-R cells = test: xMCF-7/Palbo-R xenograft tumor model; format: in vivo; settings: oral tube feeding twice daily for 20 days, Balb/c nude female mice
Method: To establish a xenograft tumor model, 1×10^7 xMCF-7/Palbo-R cells were suspended in 0.2 mL of a mixture of Matrigel and […] (1:1) and injected subcutaneously into 6-8 week-old Balb/c nube female mice. Tumor growth was observed periodically, and the volume (volume=½×(length×width 2)) was measured with a vernier caliper. When the tumors grew to an average volume of 100˜150 mm3, the drug was administered to mice (12 days after inoculation) in random groups according to the tumor size and their body weights. […] The drugs were administered by oral tube feeding twice daily for 20 days. Tumor volume and animal weight were measured twice a week and continued until the end of the experiment. Dosing day was defined as day 0. Measurement time points were day 0, day 3, day 7, day 10, day 14, day 17 and day 20. All mice were euthanized by cervical dislocation. At the end of the experiment, tumors were collected and weighed to calculate TGI values (see Table 4).

MV4-11 cells = test: MV4-11 xenograft tumor model; format: in vivo; settings: oral tube feeding twice a day for 15 days, NOD/SCID mice
Method: MV-4-11 cells were cultured in IMEM culture medium containing 10% fetal bovine serum. Cells in the exponential growth phase were collected, and the cells were resuspended in PBS to a suitable concentration for subcutaneous tumor inoculation in nude mice.
To establish a xenograft tumor model, 5×10^6 MV4-11 cells were suspended in 0.1 mL of a 1:1 mixture of PBS and Matrigel and injected subcutaneously into the right dorsal side of 6-8-week-old NOD/SCID mice. Tumor growth was observed periodically, and the volume (volume=½×(length×width^2)) was measured with a vernier caliper. When the tumors grew to an average volume of 100˜150 mm^3, the drug was administered to mice (12 days after inoculation) in random groups according to the tumor size and their body weights. […] Among them, the mice in the Vehicle, 10 mg/kg TY-3301, 10 mg/kg C3, and 20 mg/kg C3 groups were administered twice a day by oral tube feeding for 15 days, and the mice in the 20 mg/kg TY-3300 group were administered once a day by oral tube feeding for 15 days. Tumor volume and animal weight were measured twice a week and continued until the end of the experiment. Dosing day was defined as day 0. Measurement time points were day 0, day 3, day 7, day 10, day 14, and day 15. All mice were euthanized by cervical dislocation. At the end of the experiment, tumors were collected and weighed to calculate TGI values (see Table 6).

| Structure (SMILES) | TGI (OVCAR-3 cells) [%] | IC50 (HCC1806 cells) [nM] | IC50 (T47D cells) [nM] | IC50 (OVCAR3 cells) [nM] | IC50 (MCF7 cells) [nM] | TGI (xMCF-7/Palbo-R cells; 10 mg/kg) [%] | TGI (xMCF-7/Palbo-R cells; 20 mg/kg) [%] | TGI (MV4-11 cells; 10 mg/kg) [%] | TGI (MV4-11 cells; 20 mg/kg) [%] |
| --- | --- | --- | --- | --- | --- | --- | --- | --- | --- |
| C[C@@]1(O)CCC[C@H]1n1c(=O)c(OC(F)F)cc2cnc(NC3CCN(S(C)(=O)=O)CC3)nc21 [Example 3] | 71.3 | 50 to 5200 | 50 to 5200 | ≤ 50 | 50 to 5200 | 64.4 | 64.6 | 69.5 | 95.3 |
| C[C@@]1(O)CCC[C@H]1n1c(=O)c(C(F)F)cc2cnc(NC3CCN(S(C)(=O)=O)CC3)nc21 [PF-06873600, reference compound] | 52.6 | 50 to 5200 | ≤ 50 | 50 to 5200 | 50 to 5200 | 36.2 | – | 60.9 | – |
